Measurements: patent US20110086759A1, “CHEMICAL COMPOUNDS” (SYNGENTA CROP PROTECTION, INC., priority 2007, published 2011)

Assays:
Type in all cases: in vivo
[1] = system: Echinochloa crus-galli (ECHCG); test: Post-emergence biological efficacy, glasshouse pot test; details: 312 h, post-emergence, 1,000 g/ha, evaluated after 13 days (100=total damage; 0=no damage), read-out: Percentage damage caused to weed species, ECHCG
Method in brief: (§1)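 Scored 13 days after spraying on a 0 (no damage) to 100 (total damage) scale. Treatment was a post-emergence spray at 1000 or 250 g/ha, from acetone/water 50:50 plus 0.5% Tween 20, onto 8-day-old plants in soil pots. Growth at 24/16° C, 14 h photoperiod, 65% humidity, watered twice daily.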

Setaria faberi (SETFA) [2] = test: as above; details: 312 h, post-emergence, 1,000 g/ha, evaluated after 13 days (100=total damage; 0=no damage), read-out: Percentage damage caused to weed species, SETFA
Method in brief: as §1

[3] = system: Amaranthus retoflexus (AMARE); test: as above; details: Amaranthus retroflexus, 312 h; post-emergence, 1,000 g/ha, evaluated after 13 days (100=total damage; 0=no damage); read-out: Percentage damage caused to weed species, AMARE
Method in brief: as §1

Solanum nigrum (SOLNI) [4] = test: as above; details: 312 h, post-emergence, 1,000 g/ha, evaluated after 13 days (100=total damage; 0=no damage), read-out: Percentage damage caused to weed species, SOLNI
Method in brief: as §1

[5] = system: Alopecurus myosuroides (ALOMY); test: as above; details: 312 h, post-emergence, 1,000 g/ha, evaluated after 13 days (100=total damage; 0=no damage), read-out: Percentage damage caused to weed species, ALOMY
Method in brief: as §1

[6] = system: Ipomea hederaceae (IPOHE); test: as above; details: Ipomoea hederacea, 312 h; post-emergence, 1,000 g/ha, evaluated after 13 days (100=total damage; 0=no damage); read-out: Percentage damage caused to weed species, IPOHE
Method in brief: as §1

[7] = system: Echinochloa crus-galli (ECHCG); test: Pre-emergence biological efficacy, glasshouse pot test; details: 312 h, pre-emergence, 1,000 g/ha, evaluated after 13 days (100=total damage; 0=no damage), read-out: Percentage damage ECHCG
Method in brief: (§2)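 Damage was rated on a 0–100 scale 13 days after treatment, with plants kept at 24/16° C, 14 h light and 65% humidity. The pre-emergence spray, at 1000 or 250 g/ha in acetone/water 50:50 with 0.5% Tween 20, was applied one day after sowing.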

Setaria faberi (SETFA) [8] = test: as above; details: 312 h, pre-emergence, 1,000 g/ha, evaluated after 13 days (100=total damage; 0=no damage), read-out: Percentage damage SETFA
Method in brief: as §2

[9] = system: Amaranthus retoflexus (AMARE); test: as above; details: Amaranthus retroflexus, 312 h; pre-emergence, 1,000 g/ha, evaluated after 13 days (100=total damage; 0=no damage); read-out: Percentage damage AMARE
Method in brief: as §2

Solanum nigrum (SOLNI) [10] = test: as above; details: 312 h, pre-emergence, 1,000 g/ha, evaluated after 13 days (100=total damage; 0=no damage), read-out: Percentage damage SOLNI
Method in brief: as §2

[11] = system: Alopecurus myosuroides (ALOMY); test: as above; details: 312 h, pre-emergence, 1,000 g/ha, evaluated after 13 days (100=total damage; 0=no damage), read-out: Percentage damage ALOMY
Method in brief: as §2

[12] = system: Ipomea hederaceae (IPOHE); test: as above; details: Ipomoea hederacea, 312 h; pre-emergence, 1,000 g/ha, evaluated after 13 days (100=total damage; 0=no damage); read-out: Percentage damage IPOHE
Method in brief: as §2

COC(=O)c1nc(C2CC2)nc(NC(C)C2CC2)c1Cl (stereo not drawn) [Compound 4-171, 5-Chloro-2-cyclopropyl-4-(1-cyclopropylethyl-amino)-6-methoxy-carbonylpyrimidine]
pest or weed control at 1000 g/ha [1]: 60% | pest or weed control at 1000 g/ha (Setaria faberi (SETFA) [2]): 90% | pest or weed control at 1000 g/ha [3]: 100% | pest or weed control at 1000 g/ha (Solanum nigrum (SOLNI) [4]): 90% | pest or weed control at 1000 g/ha [5]: 40% | pest or weed control at 1000 g/ha [6]: 90% | pest or weed control at 1000 g/ha [7]: 70% | pest or weed control at 1000 g/ha (Setaria faberi (SETFA) [8]): 40% | pest or weed control at 1000 g/ha [9]: 90% | pest or weed control at 1000 g/ha (Solanum nigrum (SOLNI) [10]): 40% | pest or weed control at 1000 g/ha [11]: 30% | pest or weed control at 1000 g/ha [12]: 100%

COC(=O)c1nc(C2CC2)nc(NC(C)c2ccccc2)c1Cl (stereo not drawn) [Compound 4-174, 5-Chloro-2-cyclopropyl-6-methoxycarbonyl-4-(1-phenylethyl-amino)pyrimidine]
pest or weed control at 1000 g/ha [1]: 90% | pest or weed control at 1000 g/ha (Setaria faberi (SETFA) [2]): 90% | pest or weed control at 1000 g/ha [3]: 100% | pest or weed control at 1000 g/ha (Solanum nigrum (SOLNI) [4]): 90% | pest or weed control at 1000 g/ha [5]: 30% | pest or weed control at 1000 g/ha [6]: 100% | pest or weed control at 1000 g/ha [7]: 30% | pest or weed control at 1000 g/ha (Setaria faberi (SETFA) [8]): 20% | pest or weed control at 1000 g/ha [9]: 80% | pest or weed control at 1000 g/ha (Solanum nigrum (SOLNI) [10]): 70% | pest or weed control at 1000 g/ha [11]: 20% | pest or weed control at 1000 g/ha [12]: 50%

COC(=O)c1nc(C2CC2)nc(NC(C)c2ccc(F)cc2)c1Cl (stereo not drawn) [Compound 4-175, 5-Chloro-2-cyclopropyl-4-[1-(4-fluorophenyl)ethyl-amino]-6-methoxy-carbonylpyrimidine]
pest or weed control at 1000 g/ha [1]: 60% | pest or weed control at 1000 g/ha (Setaria faberi (SETFA) [2]): 90% | pest or weed control at 1000 g/ha [3]: 100% | pest or weed control at 1000 g/ha (Solanum nigrum (SOLNI) [4]): 100% | pest or weed control at 1000 g/ha [5]: 20% | pest or weed control at 1000 g/ha [6]: 100% | pest or weed control at 1000 g/ha [7]: 10% | pest or weed control at 1000 g/ha (Setaria faberi (SETFA) [8]): 0% | pest or weed control at 1000 g/ha [9]: 50% | pest or weed control at 1000 g/ha (Solanum nigrum (SOLNI) [10]): 10% | pest or weed control at 1000 g/ha [11]: 10% | pest or weed control at 1000 g/ha [12]: 70%

COC(=O)c1nc(C2CC2)nc(NC(C)c2ccc(Cl)cc2)c1Cl (stereo not drawn) [Compound 4-176, 5-Chloro-4-[1-(4-chlorophenyl)ethyl-amino]-2-cyclo-propyl-6-methoxy-carbonylpyrimidine]
pest or weed control at 1000 g/ha [1]: 50% | pest or weed control at 1000 g/ha (Setaria faberi (SETFA) [2]): 70% | pest or weed control at 1000 g/ha [3]: 100% | pest or weed control at 1000 g/ha (Solanum nigrum (SOLNI) [4]): 100% | pest or weed control at 1000 g/ha [5]: 20% | pest or weed control at 1000 g/ha [6]: 100% | pest or weed control at 1000 g/ha [7]: 20% | pest or weed control at 1000 g/ha (Setaria faberi (SETFA) [8]): 0% | pest or weed control at 1000 g/ha [9]: 50% | pest or weed control at 1000 g/ha (Solanum nigrum (SOLNI) [10]): 0% | pest or weed control at 1000 g/ha [11]: 0% | pest or weed control at 1000 g/ha [12]: 60%

COC(=O)c1nc(C2CC2)nc(NC(C)c2ccc(Br)cc2)c1Cl (stereo not drawn) [Compound 4-177, 4-[1-(4-Bromophenyl)ethyl-amino]-5-chloro-2-cyclopropyl-6-methoxycarbonyl-pyrimidine]
pest or weed control at 1000 g/ha [1]: 50% | pest or weed control at 1000 g/ha (Setaria faberi (SETFA) [2]): 40% | pest or weed control at 1000 g/ha [3]: 90% | pest or weed control at 1000 g/ha (Solanum nigrum (SOLNI) [4]): 90% | pest or weed control at 1000 g/ha [5]: 20% | pest or weed control at 1000 g/ha [6]: 100% | pest or weed control at 1000 g/ha [7]: 0% | pest or weed control at 1000 g/ha (Setaria faberi (SETFA) [8]): 0% | pest or weed control at 1000 g/ha [9]: 20% | pest or weed control at 1000 g/ha (Solanum nigrum (SOLNI) [10]): 0% | pest or weed control at 1000 g/ha [11]: 0% | pest or weed control at 1000 g/ha [12]: 20%

CCCCCc1ccc(C(C)Nc2nc(C3CC3)nc(C(=O)OC)c2Cl)cc1 (stereo not drawn) [Compound 4-178, 5-Chloro-2-cyclopropyl-6-methoxycarbonyl-4-[1-(4-n-pentyl-phenyl)ethylamino]-pyrimidine]
pest or weed control at 1000 g/ha [1]: 20% | pest or weed control at 1000 g/ha (Setaria faberi (SETFA) [2]): 30% | pest or weed control at 1000 g/ha [3]: 70% | pest or weed control at 1000 g/ha (Solanum nigrum (SOLNI) [4]): 80% | pest or weed control at 1000 g/ha [5]: 20% | pest or weed control at 1000 g/ha [6]: 70% | pest or weed control at 1000 g/ha [7]: 10% | pest or weed control at 1000 g/ha (Setaria faberi (SETFA) [8]): 10% | pest or weed control at 1000 g/ha [9]: 60% | pest or weed control at 1000 g/ha (Solanum nigrum (SOLNI) [10]): 30% | pest or weed control at 1000 g/ha [11]: 10% | pest or weed control at 1000 g/ha [12]: 40%
